System: 931267-113-T-J1-PDC KRAS spheroid with HUVEC/MSC, viability
Experiment: Anticancer human tumor 931267-113-T-J1-PDC patient-derived colon adenocarcinoma cell line growth inhibition [KRAS2]
Details: for IC50: curve of first compound; for viability, T/C: stronger effect = lower value; active = viability on the fitted dose curve at most 10% of control; inactive = the rest
Summary of the method: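 Combination screen of spheroid viability in tumor-cell co-cultures with endothelial (HUVEC) and mesenchymal stem cell stroma. Each agent was tested in half-log dilutions, topping at clinical Cmax or at 10 microM without a known Cmax.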

[1] = second compound 0.1 µM, first compound 0.000316 µM
[2] = second compound 0.1 µM, first compound 0.001 µM
[3] = second compound 0.1 µM, first compound 0.00316 µM
[4] = second compound 0.1 µM, first compound 0.01 µM
[5] = second compound 0.1 µM, first compound 0.0316 µM
[6] = second compound 0.316 µM, first compound 0.000316 µM
[7] = second compound 0.316 µM, first compound 0.001 µM
[8] = second compound 0.316 µM, first compound 0.00316 µM
[9] = second compound 0.316 µM, first compound 0.01 µM
[10] = second compound 0.316 µM, first compound 0.0316 µM
[11] = second compound 1 µM, first compound 0.000316 µM
[12] = second compound 1 µM, first compound 0.001 µM
[13] = second compound 1 µM, first compound 0.00316 µM
[14] = second compound 1 µM, first compound 0.01 µM
[15] = second compound 1 µM, first compound 0.0316 µM
[16] = second compound 3.16 µM, first compound 0.000316 µM
[17] = second compound 3.16 µM, first compound 0.001 µM
[18] = second compound 3.16 µM, first compound 0.00316 µM
[19] = second compound 3.16 µM, first compound 0.01 µM
[20] = second compound 3.16 µM, first compound 0.0316 µM
[21] = second compound 10 µM, first compound 0.000316 µM
[22] = second compound 10 µM, first compound 0.001 µM
[23] = second compound 10 µM, first compound 0.00316 µM
[24] = second compound 10 µM, first compound 0.01 µM
[25] = second compound 10 µM, first compound 0.0316 µM
[26] = second compound 0.1 µM, first compound 0.1 µM
[27] = second compound 0.316 µM, first compound 0.1 µM
[28] = second compound 1 µM, first compound 0.1 µM
[29] = second compound 3.16 µM, first compound 0.1 µM
[30] = second compound 10 µM, first compound 0.1 µM
[31] = second compound 0.1 µM, first compound 0.316 µM
[32] = second compound 0.1 µM, first compound 1 µM
[33] = second compound 0.1 µM, first compound 3.16 µM
[34] = second compound 0.1 µM, first compound 10 µM
[35] = second compound 0.316 µM, first compound 0.316 µM
[36] = second compound 0.316 µM, first compound 1 µM
[37] = second compound 0.316 µM, first compound 3.16 µM
[38] = second compound 0.316 µM, first compound 10 µM
[39] = second compound 1 µM, first compound 0.316 µM
[40] = second compound 1 µM, first compound 1 µM
[41] = second compound 1 µM, first compound 3.16 µM
[42] = second compound 1 µM, first compound 10 µM
[43] = second compound 3.16 µM, first compound 0.316 µM
[44] = second compound 3.16 µM, first compound 1 µM
[45] = second compound 3.16 µM, first compound 3.16 µM
[46] = second compound 3.16 µM, first compound 10 µM
[47] = second compound 10 µM, first compound 0.316 µM
[48] = second compound 10 µM, first compound 1 µM
[49] = second compound 10 µM, first compound 3.16 µM
[50] = second compound 10 µM, first compound 10 µM
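Note: compound exposure lasted 7 days before the readout.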
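Throughout, for viability, T/C: 100% = DMSO vehicle control viability.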

CC(=O)Nc1cccc(-n2c(=O)n(C3CC3)c(=O)c3c(Nc4ccc(I)cc4F)n(C)c(=O)c(C)c32)c1 + COc1cc2nc(C)nc(NC(C)c3cc(N)cc(C(F)(F)F)c3)c2cc1OC1CCOC1
< 0.1 nM: IC50 (second compound 10 µM)
10.3 nM: IC50 (second compound 0.1 µM)
5.76 nM: IC50 (second compound 0.316 µM)
inactive: viability, T/C (second compound 0.1 µM, first compound 0.0001 µM) 75.8% | viability, T/C [1] 75.3% | viability, T/C [2] 77.1% | viability, T/C [3] 72.5% | viability, T/C [4] 51% | viability, T/C [5] 15.7% | viability, T/C (second compound 0.316 µM, first compound 0.0001 µM) 76.9% | viability, T/C [6] 60.6% | viability, T/C [7] 64.8% | viability, T/C [8] 51.3% | viability, T/C [9] 50% | viability, T/C [10] 13.7% | viability, T/C (second compound 1 µM, first compound 0.0001 µM) 87% | viability, T/C [11] 71.7% | viability, T/C [12] 73.8% | viability, T/C [13] 66.1% | viability, T/C [14] 52.1% | viability, T/C [15] 14.1% | viability, T/C (second compound 3.16 µM, first compound 0.0001 µM) 91.3% | viability, T/C [16] 82.1% | viability, T/C [17] 75.1% | viability, T/C [18] 59.5% | viability, T/C [19] 52% | viability, T/C [20] 19.6% | viability, T/C (second compound 10 µM, first compound 0.0001 µM) 21.4% | viability, T/C [21] 37.6% | viability, T/C [22] 20.4% | viability, T/C [23] 2.31%
7.73 nM: IC50 (second compound 3.16 µM)
active: viability, T/C [24] 14.3% | viability, T/C [25] 1.54%
9.82 nM: IC50 (second compound 1 µM)

CN(C)C/C=C/C(=O)Nc1cc2c(Nc3ccc(F)c(Cl)c3)ncnc2cc1O[C@H]1CCOC1 + COc1cc2nc(C)nc(NC(C)c3cc(N)cc(C(F)(F)F)c3)c2cc1OC1CCOC1
inactive: viability, T/C [1] 96.2% | viability, T/C [2] 92.8% | viability, T/C [3] 75.7% | viability, T/C [4] 87.5% | viability, T/C [5] 103% | viability, T/C [26] 116% | viability, T/C [6] 81.8% | viability, T/C [7] 75% | viability, T/C [8] 90.3% | viability, T/C [9] 87.6% | viability, T/C [10] 85.2% | viability, T/C [27] 93.5% | viability, T/C [11] 87.7% | viability, T/C [12] 92.5% | viability, T/C [13] 104% | viability, T/C [14] 89.8% | viability, T/C [15] 100% | viability, T/C [28] 94% | viability, T/C [16] 72.8% | viability, T/C [17] 72.8% | viability, T/C [18] 88.1% | viability, T/C [19] 74.9% | viability, T/C [20] 97.2% | viability, T/C [29] 108% | viability, T/C [21] 69.6% | viability, T/C [22] 78.8% | viability, T/C [23] 77% | viability, T/C [24] 88.6% | viability, T/C [25] 102% | viability, T/C [30] 83.7%
> 100 nM: IC50 (second compound 0.1 µM) | IC50 (second compound 0.316 µM) | IC50 (second compound 1 µM) | IC50 (second compound 3.16 µM) | IC50 (second compound 10 µM)

COC(=O)c1ccc2c(C(=Nc3ccc(N(C)C(=O)CN4CCN(C)CC4)cc3)c3ccccc3)c(O)[nH]c2c1 + COc1cc2nc(C)nc(NC(C)c3cc(N)cc(C(F)(F)F)c3)c2cc1OC1CCOC1
637 nM: IC50 (second compound 3.16 µM)
962 nM: IC50 (second compound 0.316 µM)
513 nM: IC50 (second compound 1 µM)
inactive: viability, T/C [5] 88.1% | viability, T/C [26] 97.5% | viability, T/C [31] 69.8% | viability, T/C [32] 71.1% | viability, T/C [10] 77.5% | viability, T/C [27] 68.3% | viability, T/C [35] 55.2% | viability, T/C [36] 50% | viability, T/C [15] 73% | viability, T/C [28] 95.2% | viability, T/C [39] 57.6% | viability, T/C [40] 33.5% | viability, T/C [20] 95.6% | viability, T/C [29] 88.3% | viability, T/C [43] 78.2% | viability, T/C [44] 32.5%
1410 nM: IC50 (second compound 0.1 µM)
< 31.6 nM: IC50 (second compound 10 µM)
active: viability, T/C [33] 0.65% | viability, T/C [34] 0.3% | viability, T/C [37] 0.3% | viability, T/C [38] 0.83% | viability, T/C [41] 0.48% | viability, T/C [42] 0.34% | viability, T/C [45] 0.32% | viability, T/C [46] 0.26% | viability, T/C [25] 7.41% | viability, T/C [30] 2.82% | viability, T/C [47] 0.58% | viability, T/C [48] 0.41% | viability, T/C [49] 0.41% | viability, T/C [50] 0.26%

O=C(c1cc(Cc2n[nH]c(=O)c3ccccc23)ccc1F)N1CCN(C(=O)C2CC2)CC1 + COc1cc2nc(C)nc(NC(C)c3cc(N)cc(C(F)(F)F)c3)c2cc1OC1CCOC1
inactive: viability, T/C [5] 78.7% | viability, T/C [26] 81.4% | viability, T/C [31] 85.7% | viability, T/C [32] 87.7% | viability, T/C [33] 94.6% | viability, T/C [34] 113% | viability, T/C [10] 85.1% | viability, T/C [27] 99.7% | viability, T/C [35] 88.2% | viability, T/C [36] 70.9% | viability, T/C [37] 85.6% | viability, T/C [38] 73% | viability, T/C [15] 89.6% | viability, T/C [28] 92.1% | viability, T/C [39] 99.1% | viability, T/C [40] 112% | viability, T/C [41] 97.5% | viability, T/C [42] 84.1% | viability, T/C [20] 107% | viability, T/C [29] 87.5% | viability, T/C [43] 95.5% | viability, T/C [44] 94.4% | viability, T/C [45] 106% | viability, T/C [46] 105% | viability, T/C [25] 101% | viability, T/C [30] 112% | viability, T/C [47] 94.7% | viability, T/C [48] 98.3% | viability, T/C [49] 90.3% | viability, T/C [50] 97.3%
> 10000 nM: IC50 (second compound 0.1 µM) | IC50 (second compound 0.316 µM) | IC50 (second compound 1 µM) | IC50 (second compound 3.16 µM) | IC50 (second compound 10 µM)

Source: PubChem BioAssay AID1963863 (Molecular Pharmacology Branch, DTP, NCI, 2024)
